Data as given in PMC2248166, “Quantitative peptide binding motifs for 19 human and mouse MHC class I molecules derived using positional scanning combinatorial peptide libraries” (Immunome Research, 2008).

Target: HLA B*5101 (Homo sapiens, UniProt P01889, A329T/A93T/A95T/C349S/D138N/D201E/D98Y/E187L/E204Q/E69T/G107R/I218V/K202T/L105A/L119W/N104I/Q94N/R106L/R155S/R180L/S101N/S121T/S35A/S48A/V306I/V36M/Y195H/Y91F)
Assay: not given
Format: binding
Conditions: not given

Going from XXXDXXXXX [3064.0063] to XXYXXXXXX [3064.0060], the “Normalized average relative binding affinity (ARB), HLA B*5101” value falls from 0.74 to 0.38.

Compared with XYXXXXXXX [3064.0040], YXXXXXXXX [3064.0020] is higher in “Normalized average relative binding affinity (ARB), HLA B*5101” value: 0.053 for the first, 1.0 for the second.

Target: HLA B*3501 (Homo sapiens, UniProt P01889, A329T/A93T/A95T/C349S/D201E/D98Y/E176V/E187L/E204Q/E69T/I218V/K202T/L119I/Q94N/R155S/R180L/S121R/S35A/S48A/T118I/V127L/V306I/V36M/Y140S/Y91F)
Assay: not given
Format: binding
Conditions: not given

Going from XXXDXXXXX [3064.0063] to XXYXXXXXX [3064.0060], the “Normalized average relative binding affinity (ARB), HLA B*3501” value rises from 0.18 to 0.29.

Going from XYXXXXXXX [3064.0040] to YXXXXXXXX [3064.0020], the “Normalized average relative binding affinity (ARB), HLA B*3501” value rises from 0.012 to 0.19.

Target: HLA A*6802 (Homo sapiens, UniProt P04439, A269V/D140Y/D185E/E176V/E277Q/E87N/F33Y/G231S/I121R/I166T/I218V/L180W/L300P/L318F/N151K/P208A/P217A/Q86R/R138H/R169H/S129P/T345S/V36M)
Assay: not given
Format: binding
Conditions: not given

Compared with XXXDXXXXX [3064.0063], XXYXXXXXX [3064.0060] is lower in “Normalized average relative binding affinity (ARB), HLA A*6802” value: 0.31 for the first, 0.26 for the second.

Going from XYXXXXXXX [3064.0040] to YXXXXXXXX [3064.0020], the “Normalized average relative binding affinity (ARB), HLA A*6802” value rises from 0.017 to 0.24.

Target: HLA B*1503 (Homo sapiens, UniProt P01889, A329T/A93T/A95T/C349S/D201E/D98Y/E187L/E204Q/K202T/N87E/Q94N/R155S/R180L/S121R/S35A/V306I/V36M/Y140S/Y91S)
Assay: biochemical
Format: binding
Conditions: not given

Going from XXXDXXXXX [3064.0063] to XXYXXXXXX [3064.0060], the “Normalized average relative binding affinity (ARB), HLA B*1503” value rises from 0.13 to 0.44.

Compared with XYXXXXXXX [3064.0040], YXXXXXXXX [3064.0020] is higher in “Normalized average relative binding affinity (ARB), HLA B*1503” value: 0.017 for the first, 0.34 for the second.

Target: HLA B*5802 (Homo sapiens, UniProt P01889, A329T/C349S/D201E/D98Y/E176V/E187L/E204Q/E69T/G107R/I218V/I90N/K202T/L105A/N104I/N87E/Q89R/Q94S/R106L/R155S/R180L/R86G/S101N/S121W/S35A/S48A/V127L/V306I/V36M/Y140S/Y91M)
Assay: not given
Format: binding
Conditions: not given

Going from XXXDXXXXX [3064.0063] to XXYXXXXXX [3064.0060], the “Normalized average relative binding affinity (ARB), HLA B*5802” value rises from 0.069 to 0.72.

First: XYXXXXXXX [3064.0040]
Second: YXXXXXXXX [3064.0020]
The “Normalized average relative binding affinity (ARB), HLA B*5802” value of the first is lower: 0.030 for the first, 0.46 for the second.

Target: H-2 K^k (Mus musculus, UniProt P04223)
Sequence (P01887 21-119): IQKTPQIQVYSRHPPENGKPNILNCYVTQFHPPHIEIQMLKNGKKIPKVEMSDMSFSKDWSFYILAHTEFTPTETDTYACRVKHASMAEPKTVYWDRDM
Sequence (P04223 22-369): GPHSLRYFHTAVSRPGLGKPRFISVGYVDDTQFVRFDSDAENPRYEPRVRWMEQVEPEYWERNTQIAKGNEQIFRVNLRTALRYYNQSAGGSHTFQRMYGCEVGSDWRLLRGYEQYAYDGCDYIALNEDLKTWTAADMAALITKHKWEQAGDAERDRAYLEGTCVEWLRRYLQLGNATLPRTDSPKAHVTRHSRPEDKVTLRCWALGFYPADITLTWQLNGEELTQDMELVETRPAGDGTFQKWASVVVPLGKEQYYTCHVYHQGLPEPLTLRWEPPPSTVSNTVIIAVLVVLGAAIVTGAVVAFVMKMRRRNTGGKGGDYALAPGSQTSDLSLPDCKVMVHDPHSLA
Assay: not given
Format: binding
Conditions: not given

First: XXXDXXXXX [3064.0063]
Second: XXYXXXXXX [3064.0060]
The “Normalized average relative binding affinity (ARB), H-2 Kk” value of the first is lower: 0.46 for the first, 0.52 for the second.

First: XYXXXXXXX [3064.0040]
Second: YXXXXXXXX [3064.0020]
The “Normalized average relative binding affinity (ARB), H-2 Kk” value of the first is lower: 0.0099 for the first, 0.63 for the second.

Target: HLA A*0201 (Homo sapiens, UniProt P04439, D140Y/D185E/D98H/E176V/E277Q/G131W/G231S/I119V/I121R/I166T/I218V/L300P/L318F/N151K/N90K/P208A/P217A/Q86G/Q94H/R138H/R169H/T345S)
Assay: not given
Conditions: positional scanning combinatorial 9-mer library; normalized to 1.0 for the best residue at each position

Going from XXXDXXXXX [3064.0063] to XXYXXXXXX [3064.0060], the “Normalized average relative binding affinity (ARB), HLA A*0201” value falls from 0.91 to 0.88.

Going from XYXXXXXXX [3064.0040] to YXXXXXXXX [3064.0020], the “Normalized average relative binding affinity (ARB), HLA A*0201” value rises from 0.0078 to 0.11.

Target: H-2 D^d (Mus musculus, UniProt P01900)
Sequence (P01900 whole entry, looked up): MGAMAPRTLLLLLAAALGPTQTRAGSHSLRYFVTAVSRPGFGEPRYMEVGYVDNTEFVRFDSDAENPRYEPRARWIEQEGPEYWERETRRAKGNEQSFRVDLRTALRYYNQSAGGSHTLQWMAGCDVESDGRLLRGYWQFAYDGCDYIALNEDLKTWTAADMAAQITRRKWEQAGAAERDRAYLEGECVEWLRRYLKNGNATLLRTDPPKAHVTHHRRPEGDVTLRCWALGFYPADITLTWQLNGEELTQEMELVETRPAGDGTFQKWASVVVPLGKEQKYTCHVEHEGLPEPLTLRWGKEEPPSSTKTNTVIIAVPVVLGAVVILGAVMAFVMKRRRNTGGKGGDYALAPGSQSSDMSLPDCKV
Assay: not given
Format: binding
Conditions: not given

Compared with XXXDXXXXX [3064.0063], XXYXXXXXX [3064.0060] is lower in “Normalized average relative binding affinity (ARB), H-2 Dd” value: 0.30 for the first, 0.0028 for the second.

Going from XYXXXXXXX [3064.0040] to YXXXXXXXX [3064.0020], the “Normalized average relative binding affinity (ARB), H-2 Dd” value rises from 0.013 to 0.41.

Target: HLA B*5401 (Homo sapiens, UniProt P01889, A329T/C349S/D138N/D201E/E176V/E187T/E204Q/E69G/I76V/K202T/L119W/R155S/R180L/S121T/S35A/S48A/V127L/V306I/V36M/Y140L)
Assay: not given
Format: binding
Conditions: not given

Compared with XXXDXXXXX [3064.0063], XXYXXXXXX [3064.0060] is lower in “Normalized average relative binding affinity (ARB), HLA B*5401” value: 0.28 for the first, 0.11 for the second.

Going from XYXXXXXXX [3064.0040] to YXXXXXXXX [3064.0020], the “Normalized average relative binding affinity (ARB), HLA B*5401” value rises from 0.0039 to 0.12.

Target: HLA B*1501 (Homo sapiens, UniProt P01889, A329T/A93T/A95T/C349S/D201E/D98Y/E187L/E204Q/E69M/E70A/K202T/N87E/Q94N/R155S/R180W/S121R/S35A/S48A/V306I/V36M/Y140S/Y91S)
Assay: biochemical
Format: binding
Conditions: not given

First: XXXDXXXXX [3064.0063]
Second: XXYXXXXXX [3064.0060]
The “Normalized average relative binding affinity (ARB), HLA B*1501” value of the first is lower: 0.30 for the first, 0.60 for the second.

Going from XYXXXXXXX [3064.0040] to YXXXXXXXX [3064.0020], the “Normalized average relative binding affinity (ARB), HLA B*1501” value rises from 0.028 to 0.33.

Target: H-2 D^b (Mus musculus, UniProt P01899)
Sequence (P01887 21-119): as the sequence (P01887 21-119) above
Sequence (P01899 25-362): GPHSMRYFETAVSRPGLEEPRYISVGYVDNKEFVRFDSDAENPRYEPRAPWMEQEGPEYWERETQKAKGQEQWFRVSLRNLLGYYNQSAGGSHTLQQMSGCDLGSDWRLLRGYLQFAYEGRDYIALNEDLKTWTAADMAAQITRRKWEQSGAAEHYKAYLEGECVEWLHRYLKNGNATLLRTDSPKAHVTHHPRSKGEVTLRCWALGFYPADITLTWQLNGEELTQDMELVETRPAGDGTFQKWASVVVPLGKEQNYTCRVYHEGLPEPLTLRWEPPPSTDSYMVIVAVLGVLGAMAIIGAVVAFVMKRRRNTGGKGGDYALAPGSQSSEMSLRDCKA
Assay: not given
Format: binding
Conditions: not given

First: XXXDXXXXX [3064.0063]
Second: XXYXXXXXX [3064.0060]
The “Normalized average relative binding affinity (ARB), H-2 Db” value of the first is lower: 0.072 for the first, 0.24 for the second.

Going from XYXXXXXXX [3064.0040] to YXXXXXXXX [3064.0020], the “Normalized average relative binding affinity (ARB), H-2 Db” value rises from 0.071 to 0.57.

Target: HLA A*3201 (Homo sapiens, UniProt P04439, A270S/D101S/D185E/E176V/E277Q/F133L/G103R/G107R/G231S/H175R/I121M/I218V/I322F/K168Q/L105A/L300P/L318F/M331R/P208A/P217A/Q94H/R106L/R138Q/S129P/T104I/T323A/T345S/V100E/V321M/V358M)
Assay: biochemical
Format: binding
Conditions: not given

Compared with XXXDXXXXX [3064.0063], XXYXXXXXX [3064.0060] is higher in “Normalized average relative binding affinity (ARB), HLA A*3201” value: 0.14 for the first, 1.0 for the second.

First: XYXXXXXXX [3064.0040]
Second: YXXXXXXXX [3064.0020]
The “Normalized average relative binding affinity (ARB), HLA A*3201” value of the first is lower: 0.032 for the first, 0.12 for the second.

Target: HLA B*0702 (Homo sapiens, UniProt P01889)
Assay: not given
Format: binding
Conditions: positional scanning combinatorial 9-mer library; normalized to 1.0 for the best residue at each position

First: XXXDXXXXX [3064.0063]
Second: XXYXXXXXX [3064.0060]
The “Normalized average relative binding affinity (ARB), HLA B*0702” value of the first is higher: 0.16 for the first, 0.061 for the second.

Compared with XYXXXXXXX [3064.0040], YXXXXXXXX [3064.0020] is higher in “Normalized average relative binding affinity (ARB), HLA B*0702” value: 0.0050 for the first, 0.25 for the second.

Target: HLA B*5301 (Homo sapiens, UniProt P01889, A329T/A93T/A95T/C349S/D201E/D98Y/E176V/E187L/E204Q/E69T/G107R/I218V/K202T/L105A/L119I/N104I/Q94N/R106L/R155S/R180L/S101N/S121R/S35A/S48A/T118I/V127L/V306I/V36M/Y140S/Y91F)
Assay: not given
Format: binding
Conditions: not given

Going from XXXDXXXXX [3064.0063] to XXYXXXXXX [3064.0060], the “Normalized average relative binding affinity (ARB), HLA B*5301” value falls from 0.26 to 0.078.

First: XYXXXXXXX [3064.0040]
Second: YXXXXXXXX [3064.0020]
The “Normalized average relative binding affinity (ARB), HLA B*5301” value of the first is lower: 0.0053 for the first, 0.36 for the second.

Target: HLA A*3001 (Homo sapiens, UniProt P04439, D140H/D185E/E176W/F33S/G80R/H175R/K168Q/R138E/R41S)
Assay: biochemical
Format: binding
Conditions: not given

Going from XXXDXXXXX [3064.0063] to XXYXXXXXX [3064.0060], the “Normalized average relative binding affinity (ARB), HLA A*3001” value falls from 0.22 to 0.016.

Going from XYXXXXXXX [3064.0040] to YXXXXXXXX [3064.0020], the “Normalized average relative binding affinity (ARB), HLA A*3001” value falls from 0.46 to 0.064.

Target: HLA B*5801 (Homo sapiens, UniProt P01889, A329T/C349S/D201E/D98Y/E176V/E187L/E204Q/E69T/G107R/I218V/I90N/K202T/L105A/L119I/N104I/N87E/Q89R/Q94S/R106L/R155S/R180L/R86G/S101N/S121R/S35A/S48A/T118I/V127L/V306I/V36M/Y140S/Y91M)
Assay: not given
Format: binding
Conditions: not given

First: XXXDXXXXX [3064.0063]
Second: XXYXXXXXX [3064.0060]
The “Normalized average relative binding affinity (ARB), HLA B*5801” value of the first is lower: 0.17 for the first, 0.34 for the second.

First: XYXXXXXXX [3064.0040]
Second: YXXXXXXXX [3064.0020]
The “Normalized average relative binding affinity (ARB), HLA B*5801” value of the first is lower: 0.029 for the first, 0.20 for the second.

Target: HLA B*2705 (Homo sapiens, UniProt P01889, D138H/D201E/E176V/E204Q/G107R/H137Y/K202T/N104T/N87E/Q56L/Q94K/R106L/R155S/R180L/S101D/S121N/S48T/Y140D/Y33H/Y91C)
Assay: not given
Format: binding
Conditions: positional scanning combinatorial 9-mer library; normalized to 1.0 for the best residue at each position

Compared with XXXDXXXXX [3064.0063], XXYXXXXXX [3064.0060] is higher in “Normalized average relative binding affinity (ARB), HLA B*2705” value: 0.26 for the first, 0.40 for the second.

First: XYXXXXXXX [3064.0040]
Second: YXXXXXXXX [3064.0020]
The “Normalized average relative binding affinity (ARB), HLA B*2705” value of the first is lower: 0.0026 for the first, 0.85 for the second.

Target: HLA B*0801 (Homo sapiens, UniProt P01889, A93T/A95T/D138N/E176V/E187T/K202T/Q94N/R180D/S35A/V36M/Y33D/Y91F)
Assay: biochemical
Format: binding
Conditions: not given

First: XXXDXXXXX [3064.0063]
Second: XXYXXXXXX [3064.0060]
The “Normalized average relative binding affinity (ARB), HLA B*0801” value of the first is lower: 0.072 for the first, 0.13 for the second.

First: XYXXXXXXX [3064.0040]
Second: YXXXXXXXX [3064.0020]
The “Normalized average relative binding affinity (ARB), HLA B*0801” value of the first is lower: 0.066 for the first, 0.24 for the second.
